Data from patent US5849801A, “4-amino-5-oxy-2,6,6-trimethyl-2-cycloheptene compounds” (Tokyo Tanabe Company Limited, priority 1995, dated 1998).
pIC50: −log10 of the molar value. Where a name gives a salt, the structure may show the parent alone.

Tests used:
[1] = test system: platelet aggregation induced by platelet activating factor (PAF); assay: Inhibiting effect on platelet aggregation (in vitro), platelet activating factor (PAF) as aggregating agent; type: cell-based, Japanese white male house rabbits; settings: Oryctolagus cuniculus; PAF 2.5 ng/ml, 37° C., platelet suspension
Procedure: (§1) Platelet rich plasma was prepared from Japanese white male house rabbits (body weight: 2.5~3.0 kg) following the method of Suzuki et al. (Suzuki, K. et al., The Clinical Report, Vol. 21, No. 13, p. 5263, 1987). The resulting platelet rich plasma solution was appropriately diluted with a Tris-Tyrode buffer solution (pH 7.4) to prepare a 4×10^5 platelet/μl platelet suspension to be used for the test. The platelet aggregation was measured using a platelet aggregometer (NBS Hematoracer 601, product of Nikoh Bioscience Co.). Specifically, 250 μl of the platelet suspension, 5 μl of a 96 mM calcium chloride solution and 5 μl of the test compound solution dissolved in methanol were added to a cuvette, and after incubating for one minute at 37° C., 20 μl of an aggregating agent was added and the maximum degree of aggregation occurring was determined. The aggregating agents used were platelet activating factor (PAF) (2.5 ng/ml) and arachidonic acid (68.6 μg/ml). The 50% inhibition concentration (IC50) was calculated from the results of measurement with various concentrations of each test compound.

[2] = test system: calcium contraction of the thoracic aorta; assay: Effect on calcium contraction (in vitro), thoracic aorta specimens; parameters: species or system Male SD rats; settings: Rattus norvegicus; 1×10^-7 M in dimethylsulfoxide; 0.3 mM calcium chloride, 80 mM KCl buffer
Procedure: This was investigated according to the method of Ishibashi, et al. (Ishibashi, A. et al., Folia Pharmacologica Japonica, Vol. 82, p. 361, 1983). Male SD rats of body weight approximately 300 g were used to prepare thoracic aorta extract specimens, which were suspended and immobilized in a organ bath containing 10 ml of Krebs-Henseleit buffer solution at 37° C. through which a mixed gas of oxygen (95%) and carbon dioxide (5%) had been passed. After equilibrating the specimens, they were equilibrated in a buffer solution without calcium chloride and then in an isotonic calcium-free 80 mM potassium chloride buffer solution replaced with potassium ions, and a resting tension of 0.2 g was applied. Contraction was induced by addition of 0.3 mM calcium chloride. The test compounds were added 10 minutes prior to addition of the calcium solution. The percent inhibition of the test compounds were calculated using the first contraction as the control (100% contraction). The test compounds were used for the test as solutions in dimethylsulfoxide at a 1×10^-7 M concentration.

[3] = test system: platelet aggregation induced by arachidonic acid; assay: Inhibiting effect on platelet aggregation (in vitro), arachidonic acid as aggregating agent; type: cell-based, Japanese white male house rabbits; settings: Oryctolagus cuniculus; arachidonic acid 68.6 μg/ml, 37° C., platelet suspension
Procedure: as §1

[4] = test system: histamine-induced guinea pig bronchoconstriction; assay: Effect on histamine-induced guinea pig bronchoconstriction models; type: in vivo, male Hartley guinea pigs; settings: inhalation for 30 seconds, hydrochloride, histamine 3 μg/kg i.v. after 2 minutes
Procedure: After urethane anesthetization of male Hartley guinea pigs (body weight: 350~450 g, 5 per group, Nihon Crea Co.), a small cannula was inserted into trachea. Next, gallamine triethiodide (1 mg/kg) was intravenously administered, and the tracheal cannula was connected to a constant volume respirator. The artificial respiration was conducted with an air volume per breath of 7~10 ml, a breath frequency of 60/min and a lung application pressure of 10 cm water. The volume of air overflowing from the legs on the cannula side was recorded on a polygraph (RM6100: product of Nihon Koden Co.) with a model 7020 bronchospasm transducer (product of Ugo Basile). Hydrochloride of the test compounds were dissolved in physiological saline, and inhalation was performed with reference to the method of Minami et al. […] The inhalation load apparatus was prepared by directly incorporating an ultrasonic nebulizer into an artificial respiration circuit (Omron ultrasonic aspirator NE-U11B, product of […] Electric Co.). The test compound (mg/0.5 ml) was administered by inhalation for 30 seconds, and after 2 minutes histamine (3 μg/kg) was intravenously administered and the air overflow volume was measured. The bronchoconstriction rate was calculated as a percentage with 100 being the height of contraction when the airway was completely constricted. The inhibition rate was calculated by dividing the contraction rate of the test compound group by the contraction rate of the control group.

[5] = test system: blood pressure of anesthetized rats; assay: Effect on blood pressure of anesthetized rats; type: in vivo, Male SD rats; settings: Rattus norvegicus, intravenous, diastolic, urethane anesthesia, read-out: Reduction of blood pressure (%)
Procedure: Male SD rats (body weight: 250~350 g, product of Nihon Crea Co.) were placed under urethane anesthesia and then a sphygmomanometric pressure transducer was inserted into the left cervical artery and recording was made on a polygraph (RM6100, product of Nihon Koden Co.) using a strain pressure […], product of Nihon Koden Co.). The test compounds were dissolved in physiological saline and administered intravenously. The change in blood pressure was indicated as the reduction rate from the initial value of diastolic blood pressure just prior to administration of the test compound.

[6] = test system: rat peripheral arterial occlusion models; assay: Effect on rat peripheral arterial occlusion models (5% lactic acid induced); type: in vivo, SD rats; settings: i.v., lower leg lesions at 14 days
Procedure: Models were prepared following the method of Iwamoto et al. (Iwamoto, M. et al., Japanese Pharmacology & Therapeutics, Vol. 14, Suppl. 5, p. 41, 1986). Upon minimal dissection of the femoral regions of SD rats (6 per group) with a body weight of 250~350 g under Nembutal anesthesia, 0.1 ml of 5% lactic acid was administered intraarterially. The rats were raised for 14 days under normal conditions, and observed for lesions of the lower legs. The grading for the lesions was: "1" for nigrities only at the nail tips, "2" for nigrities up to the digits, "3" for necrosis of the digits, and "4" deciduation of the digits. Each of the digits of the lower legs on the side where lactic acid had been administered were graded, and the overall grade was determined as the index of lesions. The disorder inhibition rate was determined by dividing the index of lesions in the drug-administered group by the index of lesions of the control group. The drugs were dissolved in physiological saline or dimethylsulfoxide, and injected through the caudal vein 5 minutes prior to injection of the 5% lactic acid.

[7] = test system: antigen-induced guinea pig bronchoconstriction; assay: Effect on antigen-induced guinea pig bronchoconstriction; type: in vivo, Male Hartley guinea pigs; settings: inhaled one minute before i.v. DNP-bovine serum albumin; observed 15 minutes; passively sensitized
Procedure: Male Hartley guinea pigs (body weight: 300~450 g, Nihon Crea Co.) were intraperitonealy administered anti-DNP-Ascarls serum (1024-fold antibody titer) at 0.5 ml/kg. After 24 hours, under urethane anesthesia there were inserted a cannula into the trachea, a sphygmomanometric cannula into the left cervical artery and a drug injection cannula into the right jugular vein, and gallamine triethiodide (1.0 mg/0.5 ml/kg) was intravenously administered and connected to an artificial respirator (product of Ugo Basile). For the test, diphenhydramine (60 mg/ml/kg) was intraperitoneally administered, the compound of Example 16 was inhaled as the test compound after 14 minutes, and following intravenous administration of DNP-bovine serum albumin (1.0 mg protein/0.5 ml/kg) one minute after administration of the test compound, the degree of bronchoconstriction was observed over a period of 15 minutes. The bronchoconstriction rate was given as a percentage of the maximum air over flow volume obtained by clamping off the trachea. The test compounds were inhaled by nebulizing for 30 seconds with an ultrasonic nebulizer.

Structure (SMILES) | inhibition at 0.1 µM [2] | Brochoconstriction inhibition rate ([4]; 3.0 mg/0.5 ml) | inhibition in vivo at 10 mg/kg [5] | other results
CC1=CC(N2CCOCC2)C(O)C(C)(C)CC1=O (stereo not drawn) [Example 18, 5-hydroxy-4-morpholino-2,6,6-trimethyl-2-cyclohepten-1-one] | 39% |  |  | pIC50 [1]: 4.01
CC1=CC(N2CCC3(CC2)OCCO3)C(O)C(C)(C)CC1=O (stereo not drawn) [Example 26, 4-(1,4-dioxa-8-aza-spiro[5.4]decan-8-yl)-5-hydroxy-2,6,6-trimethyl-2-cyclohepten-1-one] |  | 53% |  | pIC50 [3]: 4.44
CC1=CC(NCCc2ccccc2)C(O)C(C)(C)CC1=O (stereo not drawn) [Example 2, 4-(2-phenylethylamino)-5-hydroxy-2,6,6-trimethyl-2-cyclohepten-1-one] |  |  |  | inhibition in vivo at 1 mg/kg [5]: 16%; inhibition in vivo at 3 mg/kg [5]: 31%
CC1=CC(NC2CCCCC2)C(O)C(C)(C)CC1=O (stereo not drawn) [Example 8, 4-cyclohexylamino-5-hydroxy-2,6,6-trimethy-2-cyclohepten-1-one hydrochloride] |  |  | 45% | 
CC1=CC(NC(C)(C)C)C(O)C(C)(C)CC1=O (stereo not drawn) [Example 12, 5-hydroxy-4-(tert-butylamino)-2,6,6-trimethyl-2-cyclohepten-1-one] |  |  | 33% | 
CC1=CC(N2CCCCC2)C(O)C(C)(C)CC1=NO (stereo not drawn) [Example 30, 5-hydroxy-4-piperidino-2,6,6-trimethyl-2-cyclohepten-1-one oxime] |  | 42% |  | 
CC1=CC(N2CCCCC2)C(O)C(C)(C)CC1=O (stereo not drawn) [Example 16, 5-hydroxy-4-piperidino-2,6,6-trinethyl-2-cyclohepten-1-one hydrochloride] | 24% | 32% | 40% | inhibition in vivo at 1 mg/kg [5]: 6%; inhibition in vivo at 3 mg/kg [5]: 16%; pIC50 [3]: 4.00; Inhibition rate ([6]; 3 mg/kg, solvent physiological saline (printed once, above)): 65%; Inhibition rate ([6]; 30 mg/kg, solvent physiological saline (printed once, above)): 78%; Brochoconstriction inhibition rate ([4]; 10.0 mg/0.5 ml): 46%; airway contraction / bronchoconstriction (FIG. 1) [7]: inhibited airway contract ion
CC1=CC(N(C)Cc2ccccc2)C(O)C(C)(C)CC1=O (stereo not drawn) [Example 28, 5-hydroxy-4-(N-methylbenzylamino)-2,6,6-trimethyl-2-cyclohepten-1-one] |  |  |  | pIC50 [3]: 4.96
CC1=CC(N2CCN(C)CC2)C(O)C(C)(C)CC1=O (stereo not drawn) [Example 22, 5-hydroxy-4-(4-methylpiperazino)-2,6,6-trimethyl-2-cyclohepten-1-one] | 48% | 17% |  | 
CC1=CC(N2CCCCCC2)C(O)C(C)(C)CC1=O (stereo not drawn) [Example 17, 4-hexamethyleneimino-5-hydroxy-2,6,6-trimethyl-2-cyclohepten-1-one] |  |  | 42% | 
CC1=CC(NC2CCCC2)C(O)C(C)(C)CC1=O (stereo not drawn) [Example 7, 4-cyclopentylamino-5-hydroxy-2,6,6-trimethyl-2-cyclohepten-1-one hydrochloride] |  |  | 34% | 
CCOC(=O)c1ccc(CNC2C=C(C)C(=O)CC(C)(C)C2O)cc1 (stereo not drawn) [Example 4, 5-hydroxy-4-(4-ethoxycarbonylbenzylamino)-2,6,6-trimethyl-2-cyclohepten-1-one] | 33% |  |  | 
CC1=CC(Nc2ccccc2)C(O)C(C)(C)CC1=O (stereo not drawn) [Example 5, 5-hydroxy-4-phenylamino-2,6,6-trimethyl-2-cyclohepten-1-one] |  |  |  | Inhibition rate ([6]; 5 mg/kg, in DMSO): 35%
CCCCNC1C=C(C)C(=O)CC(C)(C)C1O.Cl (stereo not drawn) [Example 9, 4-(1-butylamino)-5-hydroxy-2,6,6-trimethyl-2-cyclohepten-1-one hydrochloride] |  |  | 51% | inhibition in vivo at 1 mg/kg [5]: 14%; inhibition in vivo at 3 mg/kg [5]: 32%; Brochoconstriction inhibition rate ([4]; 1.0 mg/0.5 ml): 57%
CC1=CC(NCc2ccccc2)C(O)C(C)(C)CC1=O (stereo not drawn) [Example 1, 4-benzylamino-5-hydroxy-2,6,6-trimethyl-2-cyclohepten-1-one] | 48% |  |  | pIC50 [3]: 4.00; Inhibition rate ([6]; 5 mg/kg, in physiological saline): 42%
CC1=CC(N2CCCCC2)C(O)C(C)(C)CC1=O (single isomer, unassigned; (-)) [(-) Compound of Example 35, (-)-5-hydroxy-4-piperidino-2,6,6-trinethyl-2-cyclohepten-1-one] |  |  |  | Brochoconstriction inhibition rate ([4]; 10.0 mg/0.5 ml): 64%
CC1=CC(N2CCCC2)C(O)C(C)(C)CC1=O.Cl (stereo not drawn) [Example 15, 5-hydroxy-4-pyrrolidino-2,6,6-trimethyl-2-cyclohepten-1-one hydrochloride] |  | 73% | 26% | 
COCCNC1C=C(C)C(=O)CC(C)(C)C1O (stereo not drawn) [Example 10, 5-hydroxy-4-(2-methoxyethylamino)-2,6,6-trimethyl-2-cyclohepten-1-one] | 32% |  |  | 
CCN(CC)C1C=C(C)C(=O)CC(C)(C)C1O (stereo not drawn) [Example 13, 4-diethylamino-5-hydroxy-2,6,6-trimethyl-2-cyclohepten-1-one] |  |  | 28% | 
CC1=CC(N2CCC(O)CC2)C(O)C(C)(C)CC1=O (stereo not drawn) [Example 23, 4-(4-hydroxypiperidino)-5-hydroxy-2,6,6-trimethyl-2-cyclohepten-1-one] |  | 23% |  | 
